This is an account of results in US20240024289A1, “TREATMENT OF BIPOLAR DISORDERS AND PSYCHOSIS USING DEXMEDETOMIDINE HYDROCHLORIDE” (BioXcel Therapeutics, Inc., priority 2020, published 2024).

Structures are written as SMILES. Where two headings read alike, the source gives them in different places.

Experiment [1] relates to Male C57/B16 mice.
Source text: This system uses features derived from mouse behavioral data to classify compounds for their ability to treat neuro-psychiatric symptoms by comparing the features to a proprietary reference database of behavioral feature sets that are linked to classes of marketed drugs known to treat neuro-psychiatric symptoms. Thus the system can be used as a model to identify the psychiatric effect of a compound by comparing the effects of the compounds against drugs with known validated effects.
Once all features are extracted from the raw data through an automated pipeline, proprietary bioinformatics algorithms are used to decorrelate groups of features and find the combination of values that best separate different groups of interest.
SmartCube reference data used herein include anti-psychotics tested at several dose ranges. […] Anti-psychotics, when administered at higher doses, can engage additional receptor systems and thus affect mouse behavior differently.
Animals: Male C57/B16 mice (N=12 per group) from Taconic Laboratories were used. Upon receipt, mice were group-housed in OPTI mouse ventilated cages with 4 mice per cage. Mice were acclimated to the colony room for at least one week prior to test and subsequently tested at approximately 8-9 weeks of age. All animals were examined, handled, and weighed prior to initiation of the study to assure adequate health and suitability and to minimize non-specific stress associated with manipulation.
Treatment: 7 groups (N=12 per group)
All compounds tested were formulated in NP3 (vehicle solution): 5% Pharmasolve; 30% P3 (1:1:1 PEG200:PEG400:propylene glycol); 65% saline; pH is 5.1-6.
All SmartCube runs were conducted with NP3 as vehicle and under identical settings. […] Test compounds were injected intraperitoneally (IP) for 15 min before animals were placed in SmartCube for assessment.
The results for the class analyses are presented as standardized bar charts with percentages that sum to 100 for each dose. The percentage indicates the probability the classifier can differentiate between the vehicle group and test group. […]
Experiment [2] deals with Male C57/B16 mice. The following applies: reference data from Psychogenics, cited from earlier work.

As for `Cc1cccc([C@H](C)c2cnc[nH]2)c1C` [Dexmedetomidine, (+) 4-(S)-[1-(2,3-dimethylphenyl)ethyl]-1H-imidazole], the SmartCube class signature result is “cannot distinguish the mouse behaviour from behaviour of mice on vehicle” in experiment [1] (IP, 1, 2 and 5 mcg/kg); “antipsychotic signature” in experiment [1] (IP, 10, 20 and 50 mcg/kg (0.01, 0.02, 0.05 mg/kg), 15 min before test); “high dose of anti-psychotic” in experiment [1] (IP, higher doses).
With `N=C(N)NC(=O)Cc1c(Cl)cccc1Cl` [Guanfacine], the SmartCube class signature result in experiment [2] (higher doses) is listed as “high dose anti-psychotic”; in experiment [2] (therapeutically effective doses), “unable to assign signature”.
